# Test results as given in patent US5677419A, “Cyclic vasoactive peptide analogs” (Hoffmann-La Roche Inc., priority 1994, dated 1997).
# Where a SMILES comes first, the peptide text is derived from it. Bridges are numbered along the chain shown (N, C = ends). [ ]: non-standard residue; d: D form. Phe(4-F) = N[C@@H](Cc1ccc(F)cc1)C(=O)O; 2Nal = N[C@@H](Cc1ccc2ccccc2c1)C(=O)O; Nle = CCCC[C@H](N)C(=O)O; Orn = NCCC[C@H](N)C(=O)O
# What was measured:
# guinea pigs = assay: In vivo bronchodilator activity by tracheal instillation against histamine challenge; set-up: species or system guinea pig; conditions: anesthetized male guinea pigs, inhibition of histamine (i.v.)-induced rise in tracheal pressure
# In short: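 Urethane-anaesthetised male Hartley guinea pigs (400-600 g) received compound in water by intratracheal instillation, then were paralysed, ventilated and challenged with histamine […] i.v. Tracheal pressure change gave % inhibition (≥3 animals/group); ED50 from log dose-response; duration as time until inhibition fell to 40%.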
# [1] = system: guinea pig tracheal smooth muscle; assay: Tracheal relaxant activity of VIP analogs on isolated guinea pig tracheal rings; type: cell-based; conditions: cumulative concentration response, relaxation as % of maximum response to VIP (10^-6 M=100%), three tissues pooled, linear regression
# In short: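 Male guinea pig tracheal rings under 1.5 g resting tension in Krebs at 37° C, 95% O2/5% CO2, isometric tension. Cumulative concentration-response curves; relaxation as % of response to 10^-6 M VIP added at end; three tissues pooled, EC50 by linear regression.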
Structure (SMILES),"Bronchodilator activity of VIP analogs in guinea pigs, ED50 (guinea pigs)",EC50 [1]
"CCCC[C@H](NC(=O)[C@H](CCC(N)=O)NC(=O)[C@H](CCCCN)NC(=O)[C@H](CCCNC(=N)N)NC(=O)[C@H](CC(C)C)NC(=O)[C@H](CCCCN)NC(=O)[C@@H](NC(=O)[C@H](Cc1ccc2ccccc2c1)NC(=O)[C@H](CC(N)=O)NC(=O)[C@H](CC(=O)O)NC(=O)[C@@H](NC(=O)[C@H](Cc1ccc(F)cc1)NC(=O)[C@@H](NC(=O)[C@H](C)NC(=O)[C@H](CC(=O)O)NC(=O)[C@H](CO)NC(=O)[C@H](Cc1c[nH]cn1)NC(C)=O)C(C)C)[C@@H](C)O)[C@@H](C)O)C(=O)N[C@@H](C)C(=O)N[C@H](C(=O)N[C@@H](CCCCN)C(=O)N[C@H]1CCCCNC(=O)C[C@@H](C(=O)N[C@H](C(=O)N[C@@H](CC(C)C)C(=O)N[C@H](C(=O)NCC(=O)NCC(=O)N[C@@H](CCSC)C(N)=O)[C@@H](C)O)C(C)C)NC(=O)[C@H](CC(N)=O)NC(=O)[C@H](CC(C)C)NC(=O)[C@H](Cc2ccc(O)cc2)NC1=O)C(C)C [SEQ ID NO:30, Ac-[p-F-Phe^6,2-Nal^10,Lys^12,Nle^17,Asp^25,Val^26,Thr^28,Gly^29,30,Met^31]-VIP (1-31)-NH2 cyclo (Lys^21 →Asp^25)] (Ac-HSDAV[Phe(4-F)]TDN[2Nal]TKLRKQ[Nle]AVKKYLNDVLTGGM-NH2; lactam 21-25)",0.90 μg,1.3 nM
"CCCC[C@H](NC(=O)[C@H](CCC(N)=O)NC(=O)[C@H](CCCCN)NC(=O)[C@H](CCCNC(=N)N)NC(=O)[C@H](CC(C)C)NC(=O)[C@H](CCCN)NC(=O)[C@@H](NC(=O)[C@H](Cc1ccc(O)cc1)NC(=O)[C@H](CC(N)=O)NC(=O)[C@H](CCC(=O)O)NC(=O)[C@@H](NC(=O)[C@H](Cc1ccccc1)NC(=O)[C@@H](NC(=O)[C@H](C)NC(=O)[C@H](CC(=O)O)NC(=O)[C@H](CO)NC(=O)[C@H](Cc1c[nH]cn1)NC(C)=O)C(C)C)[C@@H](C)O)[C@@H](C)O)C(=O)N[C@@H](C)C(=O)N[C@H](C(=O)N[C@@H](CCCCN)C(=O)N[C@H]1CCCCNC(=O)C[C@@H](C(=O)N[C@H](C(=O)N[C@@H](CC(C)C)C(=O)N[C@H](C(N)=O)[C@@H](C)O)C(C)C)NC(=O)[C@H](CC(N)=O)NC(=O)[C@H](CC(C)C)NC(=O)[C@H](Cc2ccc(O)cc2)NC1=O)C(C)C [SEQ ID NO:31, Ac-[Glu^8,Orn^12,Nle^17,Asp^25,Val^26,Thr^28]-VIP cyclo (Lys^21 →Asp^25)] (Ac-HSDAVFTENYT[Orn]LRKQ[Nle]AVKKYLNDVLT-NH2; lactam 21-25)",0.19 μg,2.2 nM
"CCCC[C@H](NC(=O)[C@H](CCC(N)=O)NC(=O)[C@H](CCCCN)NC(=O)[C@H](CCCNC(=N)N)NC(=O)[C@H](CC(C)C)NC(=O)[C@H](CCCCN)NC(=O)[C@@H](NC(=O)[C@H](Cc1ccc(O)cc1)NC(=O)[C@H](CC(N)=O)NC(=O)[C@H](CCC(=O)O)NC(=O)[C@@H](NC(=O)[C@H](Cc1ccccc1)NC(=O)[C@@H](NC(=O)[C@H](C)NC(=O)[C@H](CC(=O)O)NC(=O)[C@H](CO)NC(=O)[C@H](Cc1c[nH]cn1)NC(C)=O)C(C)C)[C@@H](C)O)[C@@H](C)O)C(=O)N[C@@H](C)C(=O)N[C@@H](C)C(=O)N[C@@H](CCCCN)C(=O)N[C@H]1CCCCNC(=O)C[C@@H](C(=O)N[C@@H](CC(C)C)C(=O)N[C@@H](CCCCN)C(=O)N[C@@H](CCCCN)C(N)=O)NC(=O)[C@H](CC(N)=O)NC(=O)[C@H](CC(C)C)NC(=O)[C@H](Cc2ccc(O)cc2)NC1=O [SEQ ID NO:40, Ac-[Glu^8,Lys^12,Nle^17,Ala^19,Asp^25,Leu^26,Lys^27,28]-VIP cyclo (Lys^21 →Asp^25)] (Ac-HSDAVFTENYTKLRKQ[Nle]AAKKYLNDLKK-NH2; lactam 21-25)",0.022 μg,0.45 nM
